Assay results taken from patent US10919889B2, “Chiral heterocyclic compound with hedgehog pathway antagonist activity, method and use thereof” (SUZHOU KINTOR PHARMACEUTICALS, INC., priority 2016, dated 2021).
Read-outs that look alike come from different tables or passages of the source.

Key:
CYP2D6 = molecular target: T1, CYP2D6 (Homo sapiens, UniProt P10635); assay: CYP liver enzyme inhibition experiment, CYP-2D6; assay type: in vitro ADME; details: human liver microsomes, pH 7.4, probe dextromethorphan, test compound 10 μM, HLM, dextromethorphan 5 μM, read-out: CYP-2D6 Inhibitory rate (%)
T1 construct: containing HLM (0.2 mg/mL), phosphate buffer (100 mM, pH 7.4); from tissue; host or cells: liver microsomes (HLM)
T1 sequence (P10635 whole entry): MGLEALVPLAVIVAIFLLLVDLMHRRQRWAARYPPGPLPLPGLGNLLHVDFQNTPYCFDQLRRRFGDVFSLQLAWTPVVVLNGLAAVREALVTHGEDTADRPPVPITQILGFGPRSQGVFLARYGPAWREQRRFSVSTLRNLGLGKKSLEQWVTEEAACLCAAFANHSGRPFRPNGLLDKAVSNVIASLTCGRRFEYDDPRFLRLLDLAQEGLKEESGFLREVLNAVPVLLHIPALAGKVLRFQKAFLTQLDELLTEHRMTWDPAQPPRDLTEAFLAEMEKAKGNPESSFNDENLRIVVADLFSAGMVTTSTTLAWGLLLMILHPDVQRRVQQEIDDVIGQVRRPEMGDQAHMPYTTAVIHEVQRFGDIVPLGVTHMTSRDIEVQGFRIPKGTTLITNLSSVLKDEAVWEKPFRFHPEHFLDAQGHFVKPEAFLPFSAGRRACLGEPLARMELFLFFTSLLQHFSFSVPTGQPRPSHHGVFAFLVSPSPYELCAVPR
Protocol: The five major CYP isozymes and their respective probe substrates were: CYP-1A2 (phenacetin, 30 μM), CYP-2C9 (toluenesulfonylurea, 100 μM), CYP-2C19 40 μM), CYP-2D6 (dextromethorphan, 5 μM) and CYP-3A4 (midazolam, 1 μM). All probes were used close to or below their KMS concentrations. The mixture (200 μL) was incubated in a 37° C. constant temperature water bath, containing HLM (0.2 mg/mL), phosphate buffer (100 mM, pH 7.4), NADPH […], test compound (10 μM) and the respective CYP probe substrate. Before the reaction with NADPH, the mixture was pre-incubated for 10 minutes to undergo inhibitor-enzyme interaction. After a specific period of time (10 minutes for CYP-1A2, 2D6 and 3A4; 30 minutes for CYP-2C9 and 2C19), the reaction was quenched by addition to 100 μL solution of appropriate amount of cold acetonitrile. Reaction system was centrifuged and injected into the LC-MS/MS to quantify the concentration of specific metabolite formed from the substrate and the CYP enzyme. Each test compound was tested at least three times independently. […]
Before the start of the reaction with NADPH, the above mixture can be pre-incubated for about 10 minutes to allow inhibitor-enzyme interactions. […] The quenched mixture can be centrifuged, and aliquots of the mixture can then be analyzed by LC-MS/MS to quantify the concentrations of specific metabolic products for each CYP isozyme. […]

[1] = Rat pharmacokinetics experiments; assay type: in vivo, Sprague-Dawley rats; details: for Vd: read-out: Apparent volume of distribution Vd, ss; for AUC(0-t): read-out: Area under the curve AUC0-24 h; for clearance: read-out: Clearance CL; for bioavailability / concentration at 8 h: po; for concentration at 8 h: oral dose 10 mg/kg
Protocol: Male Spraguee-Dawley rats (body weight: 220 g˜250 g) were purchased from Slac Laboratory Animals (Shanghai). […] Blood samples were taken through the posterior orbital vein and the blood samples were placed in a tube containing EDTA (as an anticoagulant) and stored in a −80° C. environment after centrifugation with a refrigerated centrifuge. Blood sample (at an amount of folds of 25 μL) was taken and cold acetonitrile containing the internal standard (100 μL) was added. Sample was centrifuged for 10 minutes to precipitate the plasma protein. Finally, supernatant (10 μL) was injected into the LC-MS/MS system for analysis.
LC-MS/MS analysis method: All samples were analyzed by LC-MS/MS system of API4000 QTRAP mass spectrometer equipped with LC-20AD and CBM-20A controllers, DGU-20A solvent degasser and SIL-20A autosampler (Japan Shimadzu, Colombia, Md., USA). A Bona Aeger Venusil XBP C18 column (50×2.1 mm; filler 5 micron particle size) was used for HPLC separation. The column temperature was maintained at 40° C. The flow rate was 0.3 mL/min and the total run time was 6 minutes.
For the quantification of MS/MS, the API4000 QTRAP mass spectrometer was operated in an ESI positive mode with multiple reaction monitoring (MRM). All compounds and internal standards were set to be monitored during a residence time of 100 milliseconds. The other MS/MS parameters were set as follows: atomization gas (GS1) at 30 psi, 551b turbine pressure, 4500V ion spray voltage, 500° C. ion source temperature. For the selected ion transitions, each analyte was tested at the optimal sensitivity of the cluster potential (DP) and the collision energy (CE). Finally, the data was collected and processed using AB SCIEX Analysist 1.5.2 data collection and integration software.
Test subjects, Sprague-Dawley rats (body weight from about 220 g to about 250 g), were purchased from Slac Laboratory Animals (Shanghai, China). All compounds tested at 1 mg/mL concentration, either intravenous injected at a tail vein at 1 mL/kg dosage for one group of test subjects or administered orally at a dose of 10 mL/kg in another group of test subjects. Then aliquots of blood samples were collected by retro-orbital venous plexus puncture at time intervals after the injection/administration. The blood samples were kept in tubes containing EDTA, centrifuged and stored at −80° C. before analysis. Blank plasma was collected by the same method before rats were treated with compounds. Plasma samples for analysis were obtained by removing about 25 μL from the saved blood sample; adding cold acetonitrile (about 100 μL) as internal standard; centrifuged for 10 minutes to precipitate plasma proteins; and collect about 10 μL of the upper clear solution for analysis done by an LC-MS/MS system.
All samples were analyzed by an API 4000 QTRAP® LC/MS/MS System equipped with Shimadzu LC-20AD pump, Shimadzu CBM-20A controller, SIL-20A autosampler and DGU-20A degasser (Shimadzu, Columbia, Md., USA). A Venusil XBP C18 HPLC Column (2.1×50 mm, 5 μm) (Bonna-Agela Technologies) was used for HPLC separation at isocratic temperature of 40° C. Flow rate was kept at 0.3 mL/min and the total run time was kept at 6 minutes.
Quantification by MS/MS is done using the above-described API 4000 QTRAP mass spectrometer equipped with multiple reaction monitoring (MRM) and positive electrospray ionization (ESI+) modes. All compounds and internal standard were detected at […] of about 100 milliseconds. Other parameters for MS/MS are shown below: Ion Source Gas 1 (GS1) at 30 psi, turbine pressure at 55 pounds, ion spray voltage at 4500 V, and ion source temperature at 500° C. MRM measurements of the analytes were performed using declustering potential (DP) and […] values optimized for each analyte. Finally, all of the operations, the acquisition and analysis of data were controlled by Analyst (version 1.5.2, AB Sciex, USA).

[2] = male, Sprague-Dawley, plasma, intravenous injection, 2 mg/kg
[3] = male, Sprague-Dawley, plasma, oral, 10 mg/kg
[4] = male, Sprague-Dawley, plasma, oral, 10 mg/kg, read-out: Maximum plasma concentration Cmax
[5] = male, Sprague-Dawley, plasma, oral, 10 mg/kg, read-out: Peak time Tmax
[6] = male, Sprague-Dawley, plasma, 10 mg/kg, P.O. 10 mg/kg vs I.V. 2 mg/kg, read-out: F %
[7] = male, Sprague-Dawley, plasma, 10 mg/kg, oral 10 mg/kg vs intravenous 2 mg/kg, read-out: Bioavailability F %
[8] = male, Sprague-Dawley, plasma, 10 mg/kg, read-out: plasma concentration after 8 hours
[9] = male, Sprague-Dawley, plasma, 10 mg/kg, read-out: plasma concentration after 8 hours in terms of molecular weight conversion
[10] = male, Sprague-Dawley, plasma, 10 mg/kg, oral, read-out: bioavailability

Structure (SMILES) | inhibition at 10 min, 10 µM (CYP2D6) [%] | AUC0-24 h ([1]; I.V., 2 mg/kg) [ng·h/mL] | CL ([1]; I.V., 2 mg/kg) [mL/min/kg] | AUC0-24 h ([1]; P.O., 10 mg/kg) [ng·h/mL] | Vd [1, 2] [L/kg] | AUC(0-t) [1, 2] [ng·h/mL] | clearance [1, 2] [mL/min/kg] | AUC(0-t) [1, 3] [ng·h/mL] | Cmax [1, 4] [ng/mL] | Tmax [1, 5] [h] | bioavailability [1, 6] [%] | bioavailability [1, 7] [%] | concentration at 8 h [1, 8] [ng/mL] | concentration at 8 h [1, 9] [nM] | bioavailability [1, 10] [%] | increase of drug exposure (AUC) over that of A-55 [1] [%] | t1/2 ([1]; I.V., 2 mg/kg) [h] | Cmax ([1]; P.O., 10 mg/kg) [ng/mL] | Tmax ([1]; P.O., 10 mg/kg) [h] | half-life ([1]; male, Sprague-Dawley, plasma, intravenous injection, 2 mg/kg, read-out: Half-life t1/2 (converted)) [min]
Cc1cnc(-c2cc(N3CCc4nc(N5CCC(O)CC5)ncc4C3C)ncc2Cl)c(C)c1 (racemic) [B] | 30 ± 1.7 | 2905 | 11.4 | 7685 | 3.1 | 2900 | 11.4 | 7680 | 1690 | 0.5 | 53 | 53 | 83 | 178 | 53 |  |  |  |  | 
Cc1cnc(-c2cc(N3CCc4nc(N5CCC(O)CC5)ncc4[C@H]3C)ncc2Cl)c(C)c1 [Compound B1, (R)-1-(6-(5′-chloro-3,5-dimethyl-[2,4′-bipyridin]-2′-yl)-5-methyl-5,6,7,8-tetrahydropyrido[4,3-d]pyrimidin-2-yl)piperidin-4-ol] | 24 ± 3.5 | 2233 | 14.4 | 12324 | 2.2 | 2230 | 14.4 | 12300 | 1520 | 1 | 100 | 100 | 623 | 1340 | ~100 | 122 | 1.7 | 1520 | 1 | 102
